Reference: the supplement of paper PMC4862054

Tests used:
Settings in all cases: 72 h
CAL-85-1 [1] = tested on: CAL-85-1
How it was run: (§1)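 To measure viability, fluorescence at 560/590 nm was read after 2.5 µl CellTiter-Blue had been added for 2 h at 37 °C. Cells from breast cancer lines had been seeded in 20 µl suspension onto 384-well plates pre-loaded with compound dissolved in 5 µl medium and kept for 72 h. EC50 comes from a fitted percent-inhibition dose-response curve censored at the highest concentration, after per-plate normalisation to vehicle and a positive kill control, Z'-factor checks, and removal of rows with zero drug sensitivity score.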

MDA-MB-453 [2] = tested on: MDA-MB-453
How it was run: as §1

HDQ-P1 [3] = tested on: HDQ-P1
How it was run: as §1

MDA-MB-468 [4] = tested on: MDA-MB-468
How it was run: as §1

SK-BR-3 [5] = tested on: SK-BR-3
How it was run: as §1

BT-474 [6] = tested on: BT-474
How it was run: as §1

DU-4475 [7] = tested on: DU-4475
How it was run: as §1

CAL-51 [8] = tested on: CAL-51
How it was run: as §1

MDA-MB-231 [9] = tested on: MDA-MB-231
How it was run: as §1

HCC1143 [10] = tested on: HCC1143
How it was run: as §1

CAL-120 [11] = tested on: CAL-120
How it was run: as §1

HCC1599 [12] = tested on: HCC1599
How it was run: as §1

MDA-MB-468 [13] = tested on: MDA-MB-468; remark: listed apart in the source
How it was run: (§2)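 A 20 µl suspension of breast cancer cells was placed in 384-well plates that already contained compound at 5 concentrations in 10-fold steps across a compound-specific 10,000-fold range, and the plates were left for 72 h. CellTox Green fluorescence at 485/520 nm gave cell death, and CellTiter-Glo luminescence, read after 10 min at room temperature, gave viability. Each plate was normalised to 0.1 % DMSO and a positive kill control. EC50 was fitted from the curves and censored at the top concentration.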

CAL-120 [14] = tested on: CAL-120; remark: listed apart in the source
How it was run: as §2

CAL-51 [15] = tested on: CAL-51; remark: listed apart in the source
How it was run: as §2

BT-474 [16] = tested on: BT-474; remark: listed apart in the source
How it was run: as §2

MDA-MB-436 = tested on: MDA-MB-436
How it was run: as §1

HCC1937 = tested on: HCC1937
How it was run: as §1

Hs578T [17] = tested on: Hs578T
How it was run: as §1

MDA-MB-231 [18] = tested on: MDA-MB-231; remark: listed apart in the source
Method: (§3)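 Drug sensitivity and resistance testing (DSRT) of breast cancer cell lines in 384-well plates, 5 concentrations in 10-fold dilutions over a compound-specific 10,000-fold range. After 72 h, cytotoxicity was read by CellTox Green fluorescence and viability by CellTiter-Glo luminescence (multiplexed), normalised to DMSO and benzethonium chloride controls. EC50 is the inflection point of the fitted dose-response curve (bottom asymptote free, so it can be relative for partial curves) and is censored at the highest tested concentration. Rows with DSS 0 (no meaningful response) were excluded.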

MFM-223 [19] = tested on: MFM-223
Method: as §3

CAL-120 [20] = tested on: CAL-120; remark: listed apart in the source
Method: as §3

MCF-10A [21] = tested on: MCF-10A
Method: as §3

CAL-51 [22] = tested on: CAL-51; remark: listed apart in the source
Method: as §3

CAL-85-1 [23] = tested on: CAL-85-1; remark: listed apart in the source
Method: as §3

Hs578T [24] = tested on: Hs578T; remark: listed apart in the source
Method: as §3

CAL-148 [25] = tested on: CAL-148
How it was run: as §1

DU-4475 [26] = tested on: DU-4475; remark: listed apart in the source
How it was run: as §2

MDA-MB-231 [27] = tested on: MDA-MB-231; remark: listed apart in the source
How it was run: as §2

HCC1143 [28] = tested on: HCC1143; remark: listed apart in the source
How it was run: as §2

MFM-223 [29] = tested on: MFM-223; remark: listed apart in the source
How it was run: as §2

MCF-10A [30] = tested on: MCF-10A; remark: listed apart in the source
How it was run: as §2

CAL-85-1 [31] = tested on: CAL-85-1; remark: listed apart in the source
How it was run: as §2

CAL-148 [32] = tested on: CAL-148; remark: listed apart in the source
How it was run: as §2

SK-BR-3 [33] = tested on: SK-BR-3; remark: listed apart in the source
How it was run: as §2

HCC1599 [34] = tested on: HCC1599; remark: listed apart in the source
How it was run: as §2

Hs578T [35] = tested on: Hs578T; remark: listed apart in the source
How it was run: as §2

MDA-MB-453 [36] = tested on: MDA-MB-453; remark: listed apart in the source
How it was run: as §2

HDQ-P1 [37] = tested on: HDQ-P1; remark: listed apart in the source
How it was run: as §2

MFM-223 [38] = tested on: MFM-223; remark: listed apart in the source
How it was run: as §1

BT-549 = tested on: BT-549
How it was run: as §1

C=CC(=O)N1CCC[C@@H](n2nc(-c3ccc(Oc4ccccc4)cc3)c3c(N)ncnc32)C1
EC50, CellTiter-Blue viability (CAL-85-1 [1]): 849 nM
EC50, CellTiter-Blue viability (MDA-MB-453 [2]): 18.5 nM
EC50, CellTiter-Blue viability (HDQ-P1 [3]): 407 nM
EC50, CellTiter-Blue viability (MDA-MB-468 [4]): 71.1 nM
EC50, CellTiter-Blue viability (SK-BR-3 [5]): 8.82 nM
EC50, CellTiter-Blue viability (BT-474 [6]): 14.7 nM

CC(=O)Nc1cccc(-n2c(=O)n(C3CC3)c(=O)c3c(Nc4ccc(I)cc4F)n(C)c(=O)c(C)c32)c1
EC50, CellTiter-Blue viability (DU-4475 [7]): 0.91 nM
EC50, CellTiter-Blue viability (CAL-51 [8]): 9.94 nM
EC50, CellTiter-Blue viability (CAL-85-1 [1]): 19.4 nM
EC50, CellTiter-Blue viability (MDA-MB-453 [2]): 20.2 nM
EC50, CellTiter-Blue viability (HDQ-P1 [3]): 4.17 nM
EC50, CellTiter-Blue viability (MDA-MB-468 [4]): 35.7 nM
EC50, CellTiter-Blue viability (MDA-MB-231 [9]): 1.8 nM
EC50, CellTiter-Blue viability (HCC1143 [10]): 2.92 nM
EC50, CellTiter-Blue viability (CAL-120 [11]): 20.6 nM
EC50, CellTiter-Blue viability (HCC1599 [12]): 31.5 nM

CCc1cncnc1N1CCN(Cc2nc3ccc(C(F)(F)F)cc3[nH]2)CC1
EC50, CellTiter-Glo (MDA-MB-468 [13]): 1350 nM
EC50, CellTiter-Glo (CAL-120 [14]): > 10000 nM
EC50, CellTiter-Glo (CAL-51 [15]): 543 nM
EC50, CellTiter-Glo (BT-474 [16]): > 10000 nM

Cc1cnc(NC(=O)Nc2cc(Br)c(C)cc2OC[C@@H]2CNCCO2)cn1
EC50, CellTiter-Blue viability (MDA-MB-436): 98.7 nM
EC50, CellTiter-Blue viability (HCC1937): 121 nM
EC50, CellTiter-Blue viability (SK-BR-3 [5]): 715 nM
EC50, CellTiter-Blue viability (HCC1599 [12]): 221 nM
EC50, CellTiter-Blue viability (Hs578T [17]): 745 nM

NCCCNCCSP(=O)(O)O [Amifostine]
EC50, CellTiter-Blue viability (HCC1599 [12]): 224 nM

CC[C@@H]1C(=O)N(C)c2cnc(Nc3ccc(C(=O)NC4CCN(C)CC4)cc3OC)nc2N1C1CCCC1 [BI 2536]
EC50, CellTox Green (MDA-MB-231 [18]): 2.26 nM
EC50, CellTox Green (MFM-223 [19]): 2.41 nM
EC50, CellTox Green (CAL-120 [20]): 120 nM
EC50, CellTox Green (MCF-10A [21]): 2.65 nM
EC50, CellTox Green (CAL-51 [22]): 5.72 nM
EC50, CellTox Green (CAL-85-1 [23]): 24.1 nM
EC50, CellTox Green (Hs578T [24]): 419 nM
EC50, CellTiter-Blue viability (DU-4475 [7]): 6.01 nM
EC50, CellTiter-Blue viability (CAL-51 [8]): 12.5 nM
EC50, CellTiter-Blue viability (CAL-85-1 [1]): 2.85 nM
EC50, CellTiter-Blue viability (CAL-148 [25]): 4.74 nM
EC50, CellTiter-Blue viability (MDA-MB-453 [2]): 2.09 nM
EC50, CellTiter-Blue viability (HDQ-P1 [3]): > 1000 nM
EC50, CellTiter-Glo (DU-4475 [26]): 10.2 nM
EC50, CellTiter-Glo (MDA-MB-468 [13]): 2.04 nM
EC50, CellTiter-Glo (MDA-MB-231 [27]): 2.75 nM
EC50, CellTiter-Glo (HCC1143 [28]): 6.01 nM
EC50, CellTiter-Glo (MFM-223 [29]): 2.27 nM
EC50, CellTiter-Glo (CAL-120 [14]): 5.9 nM
EC50, CellTiter-Glo (MCF-10A [30]): 34 nM
EC50, CellTiter-Glo (CAL-51 [15]): 10.9 nM
EC50, CellTiter-Glo (CAL-85-1 [31]): 2.42 nM
EC50, CellTiter-Glo (CAL-148 [32]): 3.14 nM
EC50, CellTiter-Glo (SK-BR-3 [33]): 2.39 nM
EC50, CellTiter-Glo (HCC1599 [34]): 37.2 nM
EC50, CellTiter-Glo (Hs578T [35]): 31.6 nM
EC50, CellTiter-Glo (MDA-MB-453 [36]): 2.55 nM
EC50, CellTiter-Glo (BT-474 [16]): 6.44 nM
EC50, CellTiter-Glo (HDQ-P1 [37]): 21.4 nM
EC50, CellTiter-Blue viability (MDA-MB-468 [4]): 3.48 nM
EC50, CellTiter-Blue viability (MDA-MB-231 [9]): 5.71 nM
EC50, CellTiter-Blue viability (HCC1143 [10]): 6.32 nM
EC50, CellTiter-Blue viability (MFM-223 [38]): 1.57 nM
EC50, CellTiter-Blue viability (CAL-120 [11]): 3.52 nM
EC50, CellTiter-Blue viability (MDA-MB-436): 3.72 nM
EC50, CellTiter-Blue viability (HCC1937): 3.79 nM
EC50, CellTiter-Blue viability (SK-BR-3 [5]): 2.63 nM
EC50, CellTiter-Blue viability (Hs578T [17]): 10.5 nM
EC50, CellTiter-Blue viability (BT-549): 1.56 nM

CC[C@H](Nc1ncnc2[nH]cnc12)c1nc2cccc(F)c2c(=O)n1-c1ccccc1 [CAL-101]
EC50, CellTiter-Blue viability (DU-4475 [7]): 5560 nM
EC50, CellTiter-Blue viability (MDA-MB-453 [2]): 2180 nM
EC50, CellTiter-Blue viability (HDQ-P1 [3]): 5250 nM
EC50, CellTiter-Blue viability (MDA-MB-468 [4]): 2380 nM
EC50, CellTiter-Blue viability (HCC1143 [10]): 2280 nM
EC50, CellTiter-Blue viability (CAL-120 [11]): 8280 nM
EC50, CellTiter-Blue viability (SK-BR-3 [5]): 2160 nM
EC50, CellTiter-Blue viability (HCC1599 [12]): 94.2 nM
EC50, CellTiter-Blue viability (BT-549): 2240 nM

O=C(O)CCCCC(CCSCc1ccccc1)SCc1ccccc1 (stereo not given) [CPI-613]
EC50, CellTox Green (CAL-85-1 [23]): > 10000 nM

O=C(O)C1(C(=O)O)CCC1.[NH2-].[NH2-].[Pt+2] [Carboplatin]
EC50, CellTiter-Blue viability (CAL-51 [8]): 9460 nM
EC50, CellTiter-Blue viability (CAL-148 [25]): 5150 nM
EC50, CellTiter-Blue viability (MDA-MB-453 [2]): 7350 nM
EC50, CellTiter-Blue viability (MFM-223 [38]): 9690 nM

COc1cc2c(Oc3ccc4[nH]c(C)cc4c3F)ncnc2cc1OCCCN1CCCC1 [Cediranib]
EC50, CellTiter-Glo (MFM-223 [29]): 338 nM
